Results taken from US20200179369A1, “TREATMENT OF DIABETIC NEPHROPATHY” (TAKEDA GMBH, priority 2015, published 2020).

Test system: human mesangial cells
Experiment: Intracellular cAMP level in human mesangial cells (AlphaScreen cAMP functional assay)
Assay type: cell-based
Conditions: co-treatment with forskolin 1 μM
Method: Human mesangial cells were purchased from DS Pharma Biomedical (US). Compound A was obtained from Takeda GmbH, Konstanz, Germany. Forskolin and dimethyl sulfoxide (DMSO) were purchased from Wako Pure Chemical Industries, Ltd (Japan). Recombinant human TGF-β was purchased from R&D systems (USA).
On day 0, human mesangial cells were seeded at a cell density of 2×10^5 cells/well in CSC complete medium (Cell Systems, USA) on type 1 collagen-coated 24-well plate (AGC TECHNO GLASS Co. Ltd., Japan) in an atmosphere of 95% air and 5% CO2 at 37° C. On day 1, the cells were serum starved with CSC medium which is not containing serum and growth factors. On day 2, Compound A at final concentrations of 0.001, 0.01, 0.1, 1 and 10 μM or DMSO (control) was added to the culture medium. […]
For evaluation of the effects of Compound A on intracellular cAMP level, statistical differences between DMSO-treatment and Compound A treatment groups were analyzed with one-tailed Williams' test. For the evaluation of the effects of Compound A on mRNA expression levels, statistical differences between forskolin/TGF-β-treatment and Compound A treatment groups were analyzed with one-tailed Williams' test. To confirm the mRNA induction by TGF-β, mRNA expression levels between untreated and TGF-β-treated group were analyzed by Students t-test. […]

SMILES: CCOc1cc2c(cc1OC)C(c1ccc(=O)n(C)c1)=N[C@@H]1CC[C@@H](O)C[C@H]21 [Compound A, 5-((2R,4aR,10bR)-9-Ethoxy-2-hydroxy-8-methoxy-1,2,3,4,4a,10b-hexahydro-phenanthridin-6-yl)1-methyl-1H-pyridin-2-one]
- effect on intracellular cAMP accumulation (0.001-10 μM): further enhanced intracellular cAMP accumulation in a concentration dependent manner
- concentration at which the significant effect on intracellular cAMP accumulation was observed: ≥ 0.1 µM
